Source: BindingDB's records for doi:10.1124/mol.112.080291 (University of California San Diego, 2014)
“And” between values parts separate entries of the source, which are not always exact repeats. Equal values may be shown once.

What was measured:
Test in all cases: Synthesizing Selective Agonists for the ?7 Nicotinic Receptor with in situ Click-Chemistry on Acetylcholine Binding Protein Templates.
[1] = target: Acetylcholine-binding protein (Lymnaea stagnalis, UniProt P58154); conditions: pH 7.4; 20 °C
Acetylcholine-binding protein, sequence (P58154 whole entry): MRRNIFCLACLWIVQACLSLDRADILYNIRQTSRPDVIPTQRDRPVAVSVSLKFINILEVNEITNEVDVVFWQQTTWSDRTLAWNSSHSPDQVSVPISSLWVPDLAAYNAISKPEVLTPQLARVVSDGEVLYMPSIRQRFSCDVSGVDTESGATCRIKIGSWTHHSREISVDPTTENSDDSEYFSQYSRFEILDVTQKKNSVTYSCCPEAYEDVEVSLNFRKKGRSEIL
Description: (§1) Assay Description 2 Assays used to generate Ki or EC50 values. 1) SPA Assay - Quick screen binding assays were performed using 100 l of 0.2 mg/ml anti-mouse SPA antibody-binding beads (Amersham Biosciences) mixed with 33.6 g of monoclonal anti-FLAG M2 antibody from mouse (Sigma) in 0.1 M NaPO4 buffer, pH 7.0 (SPA mixture). Media (5l) collected 2 days after transfection were added to the mixture and finally 10 l of (+)-[3H]epibatidine (PerkinElmer Life Sciences) was added at a final concentration of 10 nM. Solutions were each counted for 1 min on either a Beckman LS 6500 liquid scintillation counter or Wallac 1450 Microbeta Trilux. Negative and positive controls consisted of media (5 l) from the respective transfections. Nonexpressing mutants were transfected and verified de novo in triplicate. Western immunoblots were also performed upon media (15 l) from transfections to verify the lack of expression. Competition curves and direct binding were measured following the protocol p

[2] = target: Neuronal acetylcholine receptor subunit alpha-4 (Homo sapiens, UniProt P43681); conditions: pH 7.4; 37 °C
Neuronal acetylcholine receptor subunit alpha-4, sequence (P43681 whole entry): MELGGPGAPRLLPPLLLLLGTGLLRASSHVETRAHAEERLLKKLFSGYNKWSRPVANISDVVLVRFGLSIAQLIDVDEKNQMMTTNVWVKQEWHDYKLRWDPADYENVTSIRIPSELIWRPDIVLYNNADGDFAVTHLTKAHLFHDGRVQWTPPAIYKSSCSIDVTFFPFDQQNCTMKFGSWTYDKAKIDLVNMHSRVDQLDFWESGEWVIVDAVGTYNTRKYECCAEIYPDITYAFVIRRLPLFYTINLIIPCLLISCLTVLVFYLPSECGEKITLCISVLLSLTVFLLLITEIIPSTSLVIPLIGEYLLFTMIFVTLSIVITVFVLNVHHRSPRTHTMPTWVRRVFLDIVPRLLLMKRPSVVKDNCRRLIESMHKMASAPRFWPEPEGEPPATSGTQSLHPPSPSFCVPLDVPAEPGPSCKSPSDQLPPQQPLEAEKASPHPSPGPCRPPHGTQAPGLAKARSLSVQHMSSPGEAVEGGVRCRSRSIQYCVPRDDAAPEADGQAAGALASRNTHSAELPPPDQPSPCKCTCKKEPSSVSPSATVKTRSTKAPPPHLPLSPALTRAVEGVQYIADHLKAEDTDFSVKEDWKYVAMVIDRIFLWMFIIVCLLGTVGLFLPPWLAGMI
Description: as §1

[3] = target: Neuronal acetylcholine receptor subunit alpha-7 (Homo sapiens, UniProt P36544); conditions: pH 7.4; 37 °C
Neuronal acetylcholine receptor subunit alpha-7, sequence (P36544 whole entry): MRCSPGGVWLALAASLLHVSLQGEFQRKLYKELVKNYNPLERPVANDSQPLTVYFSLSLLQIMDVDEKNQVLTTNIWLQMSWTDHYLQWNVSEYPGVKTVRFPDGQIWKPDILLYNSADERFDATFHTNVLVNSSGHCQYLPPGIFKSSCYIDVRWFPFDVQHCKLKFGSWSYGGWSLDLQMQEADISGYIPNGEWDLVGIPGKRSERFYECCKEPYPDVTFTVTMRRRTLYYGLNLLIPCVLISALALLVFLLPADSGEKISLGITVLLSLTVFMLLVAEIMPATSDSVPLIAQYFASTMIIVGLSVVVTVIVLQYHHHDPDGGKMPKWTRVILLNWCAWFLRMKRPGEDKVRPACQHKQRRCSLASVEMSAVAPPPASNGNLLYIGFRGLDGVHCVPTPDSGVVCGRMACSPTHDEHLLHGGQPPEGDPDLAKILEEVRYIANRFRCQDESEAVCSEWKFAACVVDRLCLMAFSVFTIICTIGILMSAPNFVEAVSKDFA
Description: as §1

[4] = target: T1, 5-hydroxytryptamine receptor 3A (Mus musculus, UniProt P23979); conditions: pH 7.4; 37 °C
T1 sequence (P23979 whole entry): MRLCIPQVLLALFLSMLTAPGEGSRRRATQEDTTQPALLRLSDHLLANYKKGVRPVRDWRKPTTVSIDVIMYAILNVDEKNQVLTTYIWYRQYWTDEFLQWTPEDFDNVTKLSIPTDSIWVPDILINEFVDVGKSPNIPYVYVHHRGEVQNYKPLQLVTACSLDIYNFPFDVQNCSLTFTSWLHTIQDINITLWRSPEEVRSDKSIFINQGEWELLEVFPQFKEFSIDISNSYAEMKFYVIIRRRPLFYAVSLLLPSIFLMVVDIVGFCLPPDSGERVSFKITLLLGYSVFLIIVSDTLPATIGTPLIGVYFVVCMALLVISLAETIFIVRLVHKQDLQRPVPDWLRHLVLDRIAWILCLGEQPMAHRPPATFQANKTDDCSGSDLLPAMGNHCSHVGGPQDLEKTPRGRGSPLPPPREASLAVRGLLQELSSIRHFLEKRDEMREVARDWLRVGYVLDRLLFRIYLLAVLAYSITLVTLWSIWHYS
Description: as §1

[5] = target: T2, Soluble acetylcholine receptor (Aplysia californica, UniProt Q8WSF8); conditions: pH 7.4; 20 °C
T2 sequence (Q8WSF8 whole entry): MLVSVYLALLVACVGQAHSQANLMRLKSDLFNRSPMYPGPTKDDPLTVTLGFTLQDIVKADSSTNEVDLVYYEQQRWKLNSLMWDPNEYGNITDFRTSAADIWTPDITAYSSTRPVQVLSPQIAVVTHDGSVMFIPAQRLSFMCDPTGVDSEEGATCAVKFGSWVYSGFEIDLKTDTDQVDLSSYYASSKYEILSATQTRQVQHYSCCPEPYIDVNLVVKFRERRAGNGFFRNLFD
Description: as §1

Row | SMILES | Ki [1] | Ki [2] | EC50 [3] | Ki [4] | Ki [5]
1 | CN1[C@@H]2CC[C@H]1C[C@H](n1cc(COc3ccccc3C3CCCC3)nn1)C2 [18t] | 30 nM | 12000 nM | > 30000 nM | 12000 nM | –
2 | C[N+]1(C)[C@@H]2CC[C@H]1C[C@H](n1cc(CNC(=O)c3ccco3)nn1)C2 [12q] | 400 nM | > 30000 nM | 3000 nM | > 30000 nM | 600 nM and 1000 nM and 700 nM
3 | C[N+]1(C)[C@@H]2CC[C@H]1C[C@H](n1cc(CNS(=O)(=O)c3ccc([N+](=O)[O-])cc3)nn1)C2 [16q] | > 5000 nM | > 30000 nM | 1800 nM | > 30000 nM | 620 nM and 800 nM and 600 nM
4 | COc1ccc(C=O)c(OCc2cn([C@@H]3C[C@H]4CC[C@@H](C3)[N+]4(C)C)nn2)c1 [13q] | 20 nM | 7000 nM | 800 nM | > 30000 nM | 110 nM and 120 nM and 80 nM
5 | O=c1cc(OCc2cnnn2CC[N+]23CCC(CC2)CC3)c2ccccc2[nH]1 [3'] | 24 nM | 30000 nM | 2900 nM | > 30000 nM | 250 nM and 290 nM
6 | Cn1c(=O)cc(OCc2cn([C@@H]3C[C@H]4CC[C@@H](C3)[N+]4(C)C)nn2)c2ccccc21 [alpha7 agonists 4] | – | 4000 nM | 300 nM | 34000 nM | –
7 | C[N+]1(C)[C@@H]2CC[C@H]1C[C@H](n1cc(CSc3nc4ccccc4s3)nn1)C2 [15q] | 4 nM | 3000 nM | 200 nM | > 30000 nM | 13 nM and 8 nM
8 | CC(=O)NCc1cn([C@@H]2C[C@H]3CC[C@@H](C2)N3C)nn1 [10t] | 900 nM | 18000 nM | > 30000 nM | > 30000 nM | > 5000 nM
9 | COc1cc(C=O)ccc1OCc1cn([C@@H]2C[C@H]3CC[C@@H](C2)[N+]3(C)C)nn1 [alpha7 agonists 8] | – | 6000 nM | 1000 nM | > 30000 nM | –
10 | CN1[C@@H]2CC[C@H]1C[C@H](n1cc(CNC(=O)c3ccco3)nn1)C2 [12t] | 210 nM | 20000 nM | > 30000 nM | > 30000 nM | > 5000 nM and 1400 nM
11 | CN1[C@@H]2CC[C@H]1C[C@H](n1cc(C3(O)c4ccccc4-c4ccccc43)nn1)C2 [20t] | 500 nM | > 30000 nM | 12000 nM | > 30000 nM | 2000 nM and 3100 nM and > 5000 nM
12 | C[N+]1(C)[C@@H]2CC[C@H]1C[C@H](n1cc(COc3ccccc3C3CCCC3)nn1)C2 [18q] | 70 nM | 4000 nM | 400 nM | > 30000 nM | 260 nM and 270 nM and 440 nM
13 | Cn1c(=O)cc(OCc2cn(CCC[N+]3(C)CCCC3)nn2)c2ccccc21 [alpha7 agonists 5] | – | 18000 nM | 800 nM | > 30000 nM | –
14 | CC(=O)NCc1cn([C@@H]2C[C@H]3CC[C@@H](C2)[N+]3(C)C)nn1 [10q] | > 5000 nM | > 30000 nM | 5000 nM | > 30000 nM | 800 nM and > 5000 nM and 900 nM
15 | C[N+](C)(C)CCn1cc(COc2cc([O])nc3ccccc23)nn1 [alpha7 agonists 6] | – | 14000 nM | 1700 nM | > 30000 nM | –
16 | Cn1c(=O)cc(OCc2cn(CC[N+]34CCC(CC3)CC4)nn2)c2ccccc21 [alpha7 agonists 3] | – | 8000 nM | 1800 nM | > 30000 nM | –

Row | SMILES | Ki [1] | Ki [2] | EC50 [3] | Ki [4] | Ki [5]
17 | C[N+]1(C)[C@@H]2CC[C@H]1C[C@H](n1cc(C3(O)c4ccccc4-c4ccccc43)nn1)C2 [20q] | 50 nM | 15000 nM | 4000 nM | > 30000 nM | 400 nM and 600 nM and 120 nM
18 | CC(=O)c1c(OCc2cn([C@@H]3C[C@H]4CC[C@@H](C3)[N+]4(C)C)nn2)ccc2ccccc12 [22q] | 160 nM | > 30000 nM | 400 nM | > 30000 nM | 200 nM and 300 nM and 900 nM
19 | CN1[C@@H]2CC[C@H]1C[C@H](n1cc(-c3cc(C(F)(F)F)cc(C(F)(F)F)c3)nn1)C2 [17t] | 600 nM | > 30000 nM | > 30000 nM | > 30000 nM | 1100 nM and > 5000 nM
20 | CC(=O)c1c(OCc2cn([C@@H]3C[C@H]4CC[C@@H](C3)N4C)nn2)ccc2ccccc12 [22t] | 141 nM | 12000 nM | 9000 nM | 12000 nM | 800 nM and 700 nM and > 5000 nM
21 | CN1[C@@H]2CC[C@H]1C[C@H](n1cc(CNC(=O)N3c4ccccc4CCc4ccccc43)nn1)C2 [23t] | > 5000 nM | > 30000 nM | > 30000 nM | > 30000 nM | 1300 nM and 1020 nM and > 5000 nM
22 | CN1[C@@H]2CC[C@H]1C[C@H](n1cc(COc3ccccc3-c3ccno3)nn1)C2 [14t] | 25 nM | > 30000 nM | > 30000 nM | > 30000 nM | –
23 | COc1ccc(C=O)c(OCc2cn([C@@H]3C[C@H]4CC[C@@H](C3)N4C)nn2)c1 [13t] | 26 nM | 5000 nM | > 30000 nM | 5000 nM | –
24 | C[N+]1(C)[C@@H]2CC[C@H]1C[C@H](n1cc(C(O)(c3ccccc3)C(F)(F)F)nn1)C2 (stereo partly specified) [19q] | 120 nM | 22000 nM | 2000 nM | > 30000 nM | –
25 | Cc1cc(C)nc(SCCCc2cn([C@@H]3C[C@H]4CC[C@@H](C3)N4C)nn2)n1 [21t] | 300 nM | > 30000 nM | > 30000 nM | > 30000 nM | –
26 | Cc1cc(C)nc(SCCCc2cn([C@@H]3C[C@H]4CC[C@@H](C3)[N+]4(C)C)nn2)n1 [21q] | 40 nM | 27100 nM | 3000 nM | > 30000 nM | –
27 | Cn1c(=O)cc(OCc2cn(CC[N+]3(C)CCCCC3)nn2)c2ccccc21 [alpha7 agonists 2] | – | 12000 nM | 1200 nM | > 30000 nM | –
28 | Cc1cc([N+](=O)[O-])ccc1OCc1cn([C@@H]2C[C@H]3CC[C@@H](C2)[N+]3(C)C)nn1 [alpha7 agonists 9] | – | 14000 nM | 1900 nM | > 30000 nM | –
29 | C[N+]1(C)[C@@H]2CC[C@H]1C[C@H](n1cc(C3(O)CCCCC3)nn1)C2 [11q] | > 5000 nM | > 30000 nM | 9000 nM | > 30000 nM | –
30 | C[N+]1(C)[C@@H]2CC[C@H]1C[C@H](n1cc(COc3cccc(C#N)c3)nn1)C2 [alpha7 agonists 7] | – | > 30000 nM | 900 nM | > 30000 nM | –
31 | CN1[C@@H]2CC[C@H]1C[C@H](n1cc(COc3cc(=O)n(C)c4ccccc34)nn1)C2 [alpha7 agonists 4t] | 1.3 nM | 14000 nM | 11000 nM | 15000 nM | –
